Experimental data reported in ChEMBL document CHEMBL1134750, “Structure-activity relationship on the human EP3 prostanoid receptor by use of solid-support chemistry” (Bioorg Med Chem Lett, 2001).
pKi: −log10 of the molar value. Each block holds one molecule with its values, some of them ahead of it.

Tests used:
[1] = biological target: T1, Prostaglandin E2 receptor EP3 subtype (Homo sapiens) (UniProt P43115); test: Residual binding of radiolabeled PGE-2 on the Prostanoid EP3 receptor at a concentration of 1 uM
T1 sequence (whole entry): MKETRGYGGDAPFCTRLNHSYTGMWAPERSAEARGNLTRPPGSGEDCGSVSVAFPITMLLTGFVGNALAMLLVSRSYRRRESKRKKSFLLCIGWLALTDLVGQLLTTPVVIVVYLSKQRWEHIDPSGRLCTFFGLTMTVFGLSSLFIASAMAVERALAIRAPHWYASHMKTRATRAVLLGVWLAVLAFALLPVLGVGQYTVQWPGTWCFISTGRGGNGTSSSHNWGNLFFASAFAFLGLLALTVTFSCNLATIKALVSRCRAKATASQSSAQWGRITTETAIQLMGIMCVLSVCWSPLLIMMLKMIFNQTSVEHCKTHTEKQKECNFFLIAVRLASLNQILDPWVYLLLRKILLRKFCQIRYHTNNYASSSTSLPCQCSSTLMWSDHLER

[2] = biological target: Prostaglandin F2-alpha receptor (Homo sapiens, UniProt P43088); test: Antagonistic activity at Prostanoid FP receptor in human was determined; assay type: functional
Prostaglandin F2-alpha receptor, sequence (P43088 whole entry): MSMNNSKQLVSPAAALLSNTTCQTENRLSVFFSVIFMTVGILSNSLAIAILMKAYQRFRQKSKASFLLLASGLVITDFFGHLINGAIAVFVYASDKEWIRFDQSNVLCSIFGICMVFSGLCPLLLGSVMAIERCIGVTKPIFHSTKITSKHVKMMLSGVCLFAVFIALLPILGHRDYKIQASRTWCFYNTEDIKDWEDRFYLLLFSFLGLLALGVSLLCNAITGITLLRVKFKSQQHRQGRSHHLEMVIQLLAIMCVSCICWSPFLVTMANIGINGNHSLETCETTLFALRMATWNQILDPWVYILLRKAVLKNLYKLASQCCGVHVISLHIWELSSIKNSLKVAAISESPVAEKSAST

[3] = biological target: T2, Prostaglandin E2 receptor EP1 subtype (Homo sapiens, UniProt P34995); test: Antagonistic activity at Prostanoid EP1 receptor in human was determined; assay type: functional
T2 sequence (P34995 whole entry): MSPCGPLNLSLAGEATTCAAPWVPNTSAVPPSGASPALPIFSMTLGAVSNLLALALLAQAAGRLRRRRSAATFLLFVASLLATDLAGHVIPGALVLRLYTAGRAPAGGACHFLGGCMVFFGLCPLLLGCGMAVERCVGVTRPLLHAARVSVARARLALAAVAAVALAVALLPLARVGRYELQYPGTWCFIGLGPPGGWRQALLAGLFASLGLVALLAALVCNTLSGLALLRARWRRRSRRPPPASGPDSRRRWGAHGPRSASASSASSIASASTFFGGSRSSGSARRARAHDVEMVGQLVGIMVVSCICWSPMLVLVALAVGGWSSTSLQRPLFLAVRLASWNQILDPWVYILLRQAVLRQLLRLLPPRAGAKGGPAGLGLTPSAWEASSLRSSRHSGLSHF

Prostacyclin receptor = Prostacyclin receptor (Homo sapiens, UniProt P43119); test: Antagonistic activity at Prostanoid IP receptor in human was determined; assay type: functional
Prostacyclin receptor, sequence (P43119 whole entry): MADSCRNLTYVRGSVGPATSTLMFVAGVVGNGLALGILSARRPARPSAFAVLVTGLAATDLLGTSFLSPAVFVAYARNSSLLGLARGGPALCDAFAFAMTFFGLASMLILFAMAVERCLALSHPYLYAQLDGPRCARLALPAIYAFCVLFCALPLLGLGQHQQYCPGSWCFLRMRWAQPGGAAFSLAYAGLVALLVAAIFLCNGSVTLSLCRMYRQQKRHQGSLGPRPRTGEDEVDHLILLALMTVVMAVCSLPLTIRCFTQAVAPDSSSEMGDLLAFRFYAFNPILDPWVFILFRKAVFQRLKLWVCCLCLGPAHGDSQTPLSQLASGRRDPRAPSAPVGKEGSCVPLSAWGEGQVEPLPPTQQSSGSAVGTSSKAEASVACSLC

[4] = biological target: T3, Prostaglandin E2 receptor EP3 subtype (Homo sapiens, UniProt P43115); test: Antagonistic activity at Prostanoid EP3 receptor in human was determined; assay type: functional
T3 sequence (P43115 whole entry): T1 sequence (whole entry)

Thromboxane A2 receptor = biological target: T4, Thromboxane A2 receptor (Homo sapiens, UniProt P21731); test: Antagonistic activity at Thromboxane A2 receptor in human was determined; assay type: functional
T4 sequence (P21731 whole entry): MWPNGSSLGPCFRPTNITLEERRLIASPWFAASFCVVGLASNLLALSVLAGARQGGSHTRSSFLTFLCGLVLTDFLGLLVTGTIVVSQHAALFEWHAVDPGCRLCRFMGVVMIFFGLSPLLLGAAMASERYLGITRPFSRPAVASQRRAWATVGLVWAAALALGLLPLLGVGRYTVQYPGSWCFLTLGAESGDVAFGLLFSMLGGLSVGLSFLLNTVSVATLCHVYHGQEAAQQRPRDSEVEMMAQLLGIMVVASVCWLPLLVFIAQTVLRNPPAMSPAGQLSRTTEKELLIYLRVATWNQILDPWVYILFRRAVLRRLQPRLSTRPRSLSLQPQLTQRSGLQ

[5] = biological target: Prostaglandin E2 receptor EP2 subtype (Homo sapiens, UniProt P43116); test: Antagonistic activity at Prostanoid EP2 receptor in human was determined; assay type: functional
Prostaglandin E2 receptor EP2 subtype, sequence (P43116 whole entry): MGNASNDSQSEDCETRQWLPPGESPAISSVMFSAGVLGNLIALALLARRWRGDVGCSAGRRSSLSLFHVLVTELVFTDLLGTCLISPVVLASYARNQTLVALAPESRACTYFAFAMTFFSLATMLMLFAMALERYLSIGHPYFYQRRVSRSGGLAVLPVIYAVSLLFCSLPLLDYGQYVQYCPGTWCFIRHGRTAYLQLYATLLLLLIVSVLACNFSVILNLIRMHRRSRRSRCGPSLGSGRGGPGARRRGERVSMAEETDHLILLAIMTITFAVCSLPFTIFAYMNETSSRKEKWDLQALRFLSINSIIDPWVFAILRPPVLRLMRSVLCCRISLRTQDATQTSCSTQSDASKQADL

[6] = biological target: T5, Prostaglandin D2 receptor (Homo sapiens, UniProt Q13258); test: Antagonistic activity at Prostanoid DP receptor in human was determined; assay type: functional
T5 sequence (Q13258 whole entry): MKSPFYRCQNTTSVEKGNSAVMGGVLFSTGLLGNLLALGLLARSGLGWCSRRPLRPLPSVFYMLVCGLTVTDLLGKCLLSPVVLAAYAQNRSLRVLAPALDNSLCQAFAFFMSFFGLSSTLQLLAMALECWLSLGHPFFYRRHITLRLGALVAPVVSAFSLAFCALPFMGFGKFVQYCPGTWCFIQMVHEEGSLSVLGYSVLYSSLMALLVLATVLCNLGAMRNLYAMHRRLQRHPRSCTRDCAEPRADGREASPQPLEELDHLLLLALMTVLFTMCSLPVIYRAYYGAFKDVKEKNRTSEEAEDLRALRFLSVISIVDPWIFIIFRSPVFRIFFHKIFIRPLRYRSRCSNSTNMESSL

[7] = biological target: Prostaglandin E2 receptor EP4 subtype (Homo sapiens, UniProt P35408); test: Antagonistic activity at Prostanoid EP4 receptor in human was determined; assay type: functional
Prostaglandin E2 receptor EP4 subtype, sequence (P35408 whole entry): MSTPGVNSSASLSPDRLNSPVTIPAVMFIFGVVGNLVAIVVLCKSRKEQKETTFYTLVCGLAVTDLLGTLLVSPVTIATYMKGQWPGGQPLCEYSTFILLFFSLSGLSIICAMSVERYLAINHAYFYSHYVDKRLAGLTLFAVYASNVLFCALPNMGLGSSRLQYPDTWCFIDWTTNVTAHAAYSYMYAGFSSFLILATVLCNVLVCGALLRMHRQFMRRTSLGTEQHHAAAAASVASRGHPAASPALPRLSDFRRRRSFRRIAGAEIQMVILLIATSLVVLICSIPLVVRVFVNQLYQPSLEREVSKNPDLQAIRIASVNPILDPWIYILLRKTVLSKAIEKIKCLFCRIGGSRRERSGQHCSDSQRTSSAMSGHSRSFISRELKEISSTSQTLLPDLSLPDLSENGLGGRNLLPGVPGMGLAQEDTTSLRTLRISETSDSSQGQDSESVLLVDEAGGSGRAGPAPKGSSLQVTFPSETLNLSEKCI

Structure (SMILES): CSc1ccc(Cc2ccccc2/C=C/C(=O)O)cc1
pKi [2]: < 4.08
pKi [3]: < 4.00
pKi (Prostacyclin receptor): < 4.12
pKi [4]: 7.10
pKi (Thromboxane A2 receptor): 5.34
pKi [5]: 4.37
pKi [6]: 5.39
pKi [7]: < 4.30

Structure (SMILES): OB(O)c1cccc2ccccc12
Residual binding [1]: 48%

Structure (SMILES): COc1ccccc1B(O)O
Residual binding [1]: 93%

Structure (SMILES): CSc1ccccc1B(O)O
Residual binding [1]: 96%

Structure (SMILES): OB(O)c1ccc(Cl)cc1Cl
Residual binding [1]: 25%

Structure (SMILES): OB(O)c1cccs1
Residual binding [1]: 74%

Structure (SMILES): OB(O)c1ccccc1C(F)(F)F
Residual binding [1]: 89%

Structure (SMILES): OCc1cccc(B(O)O)c1
Residual binding [1]: 84%

Structure (SMILES): O=C(O)/C=C/c1ccccc1Cc1ccc(Cl)c(Cl)c1
pKi [2]: 4.39
pKi [3]: 4.20
pKi (Prostacyclin receptor): 4.43
pKi [4]: 7.49
pKi (Thromboxane A2 receptor): 6.05
pKi [5]: 4.89
pKi [6]: 5.62
pKi [7]: 5.00

Structure (SMILES): OB(O)c1ccccc1CSCCc1ccccc1
Residual binding [1]: 68%

Structure (SMILES): OB(O)c1ccco1
Residual binding [1]: 91%

Structure (SMILES): O=C(O)/C=C/c1ccccc1Cc1ccc2ccccc2c1
pKi [2]: 4.16
pKi [3]: < 4.00
pKi (Prostacyclin receptor): < 4.00
pKi [4]: 7.70
pKi (Thromboxane A2 receptor): 5.00
pKi [5]: 4.92
pKi [6]: 6.28
pKi [7]: 5.51

Structure (SMILES): OB(O)c1cccc(CSCCc2ccccc2)c1
Residual binding [1]: 52%

Structure (SMILES): OB(O)c1ccsc1
Residual binding [1]: 77%

Structure (SMILES): O=C(O)/C=C/c1ccccc1Cc1ccc(Cl)cc1Cl
pKi [2]: 4.20
pKi [3]: < 4.00
pKi (Prostacyclin receptor): 4.51
pKi [4]: 6.96
pKi (Thromboxane A2 receptor): 6.28
pKi [5]: 5.39
pKi [6]: 5.60
pKi [7]: < 4.40

Structure (SMILES): OB(O)c1cc2ccccc2o1
Residual binding [1]: 61%

Now from value to molecule:

Residual binding [1]: 5%
Structure (SMILES): OB(O)c1ccc2ccccc2c1

Residual binding [1]: 55%
Structure (SMILES): OB(O)c1cccc(Cl)c1

Residual binding [1]: 54%
Structure (SMILES): OB(O)c1cccc(C(F)(F)F)c1

Residual binding [1]: 100%
Structure (SMILES): CC(C)(C)NS(=O)(=O)c1ccc(B(O)O)cc1

Residual binding [1]: 8%
Structure (SMILES): OB(O)c1ccc(Cl)c(Cl)c1

Residual binding [1]: 27%
Structure (SMILES): CSc1ccc(B(O)O)cc1

Residual binding [1]: 84%
Structure (SMILES): COc1ccc(B(O)O)cc1OC
